# Experimental data as given in publication PMC3242598, “Phase I study of BIBF 1120 with docetaxel and prednisone in metastatic chemo-naive hormone-refractory prostate cancer patients” (British Journal of Cancer, 2011).
# Where two headings read alike, the source gives them in different places.
# Tests used:
# [1] = test system: patients with metastatic, chemo-naive, hormone-refractory prostate cancer (HRPC); experiment: Dose escalation: dose-limiting toxicities and maximum tolerated dose; assay type: in vivo
# Method: On days 2–21 (21-day cycle), patients took an oral dose of BIBF 1120 twice daily. Patients were instructed to swallow BIBF 1120 with water at the same time every day to ensure a dose interval of ∼12 h. On day 2 of treatment cycles (TCs) 1 and 2, patients only took the morning dose of BIBF 1120, omitting the evening dose to allow PK evaluation. All patients were premedicated with oral corticosteroids (dexamethasone 8 mg per os or methylprednisolone 32 mg per os, at 12 h and 1 h before docetaxel infusion) and subsequently took 5 mg prednisone oral BID throughout the trial. On day 1 of each TC, patients received an IV infusion of 75 mg m^−2 docetaxel administered over 1 h.
# Based on prior clinical experience, the starting dose of BIBF 1120 in TC 1 was 100 mg BID; doses were escalated in 50 mg increments until the occurrence of a dose-limiting toxicity (DLT). Recognised DLTs included the occurrence of non-haematological related toxicity grade ⩾3 with the exception of alopecia, nail modifications, acute nausea or vomiting and isolated γ-glutamyl transpeptidase elevations. Alternatively, the occurrence of uncomplicated grade 4 neutropenia for >7 days, neutropenia grade ⩾3 associated with fever ⩾38.5 °C, or grade 4 thrombopenia or grade 3 thrombopenia associated with bleeding in […], was defined as a DLT. […]
# [2] = parameters: method as in Mross et al, 2010; conditions: monotherapy phase I; ref Mross et al, 2010; cited from earlier work
# [3] = test system: advanced lung cancer patients; parameters: method as in Reck et al, 2011; conditions: phase II, ref Reck et al, 2011, cited from earlier work
compound,measurement,setting,value
COC(=O)c1ccc2c(c1)NC(=O)/C2=C(\Nc1ccc(N(C)C(=O)CN2CCN(C)CC2)cc1)c1ccccc1 [BIBF 1120],Maximum tolerated dose (MTD),[1]; continuous daily oral BIBF 1120 + docetaxel 75 mg m^−2 every 3 weeks + prednisone 5 mg BID,250 mg BID
same,DLTs at dose levels <250 mg BID,[1]; in vivo,no patients experienced DLTs
same,t1/2,[2],~15 h
same,Frequency of CTCAE grade 3/4 liver enzyme elevations,[3]; 250 mg BID monotherapy,~20%
same,Frequency of CTCAE grade 3/4 liver enzyme elevations,[3]; 150-mg BID monotherapy,none
